Assay: Antiplatelet activity against ADP-induced C57BL/6J mouse platelet aggregation assessed as maximal aggregration rate at 10 uM preincubated for 10 mins followed by ADP addition relative to control
Format: functional

Structure (SMILES) | %max
CCC(=O)Nc1c(OC)ccc2cc3[n+](cc12)CCc1cc(OC)c(OC)cc1-3.[Cl-] | 34.5%
COc1cc2c(cc1OC)-c1cc3ccc(OC)c(OCC(C)C)c3c[n+]1CC2.[Br-] | 33.4%
Br.COc1cc2c(cc1OC)-c1cc3ccc(OC)c(OCc4ccccc4[N+](=O)[O-])c3c[n+]1CC2 | 39.7%
COc1cc2c(cc1OC)-c1cc3ccc(OC)c(NCc4ccc(F)cc4)c3c[n+]1CC2.[Cl-] | 34.2%
C=CCOc1c(OC)ccc2cc3[n+](cc12)CCc1cc(OC)c(OC)cc1-3.[Br-] | 34.3%
C/C=C/Cc1c2[n+](cc3c(OC)c(OC)ccc13)CCc1cc(OC)c(OC)cc1-2.[Br-] | 40.3%
COc1cc2c(cc1OC)-c1cc3ccc(OC)c(NCc4ccccc4)c3c[n+]1CC2.[Cl-] | 37.3%
COc1cc2c(cc1OC)-c1cc3ccc(OC)c(OCc4ccccc4C)c3c[n+]1CC2.[Br-] | 37.8%
COc1cc2c(cc1OC)-c1c(Cc3ccccc3C#N)c3ccc(OC)c(OC)c3c[n+]1CC2.[Br-] | 40.2%
COc1cc2c(cc1OC)-c1cc3ccc(OC)c(OC(=O)c4ccccc4)c3c[n+]1CC2.[Cl-] | 42.6%
Br.COc1cc2c(cc1OC)-c1cc3ccc(OC)c(OCc4ccc([N+](=O)[O-])cc4)c3c[n+]1CC2 | 37.9%
CCOc1c(OC)ccc2cc3[n+](cc12)CCc1cc(OC)c(OC)cc1-3.[Br-] | 34.6%
CCCCC(=O)Nc1c(OC)ccc2cc3[n+](cc12)CCc1cc(OC)c(OC)cc1-3.[Cl-] | 37.2%
CCCCCNc1c(OC)ccc2cc3[n+](cc12)CCc1cc(OC)c(OC)cc1-3.[Cl-] | 37.8%
COc1cc2c(cc1OC)-c1c(Cc3ccc(C)cc3)c3ccc(OC)c(OC)c3c[n+]1CC2.[Br-] | 38.3%
COc1cc2c(cc1OC)-c1cc3ccc(OC)c(OS(=O)(=O)c4ccc([N+](=O)[O-])cc4)c3c[n+]1CC2.O=[SH](=O)c1ccccc1 | 37.7%
COc1cc2c(cc1OC)-c1cc3ccc(OC)c(OCc4cccc(F)c4)c3c[n+]1CC2.[Br-] | 35.7%
COc1cc2c(cc1OC)-c1cc3ccc(OC)c(OCc4ccc(C(C)C)cc4)c3c[n+]1CC2.[Br-] | 37.5%
COc1cc2c(cc1OC)-c1c(Cc3cccc(C)c3)c3ccc(OC)c(OC)c3c[n+]1CC2.[Br-] | 41.4%

Structure (SMILES) | %max
CCC(=O)Oc1c(OC)ccc2cc3[n+](cc12)CCc1cc(OC)c(OC)cc1-3.[Cl-] | 40.1%
COc1cc2c(cc1OC)-c1cc3ccc(OC)c(OCc4cccc(C#N)c4)c3c[n+]1CC2.[Br-] | 35.5%
COc1cc2c(cc1OC)-c1cc3ccc(OC)c(OCCC4CCCCC4)c3c[n+]1CC2.[Br-] | 36.5%
COc1cc2c(cc1OC)-c1cc3ccc(OC)c(OC(=O)c4ccccc4C)c3c[n+]1CC2.[Cl-] | 38%
COc1cc2c(cc1OC)-c1cc3ccc(OC)c(OCC4CCC4)c3c[n+]1CC2.[Br-] | 34.4%
CCCCCCCOc1c(OC)ccc2cc3[n+](cc12)CCc1cc(OC)c(OC)cc1-3.[Br-] | 35.3%
COc1ccc(CNc2c(OC)ccc3cc4[n+](cc23)CCc2cc(OC)c(OC)cc2-4)cc1.[Cl-] | 35.6%
COc1cc2c(cc1OC)-c1cc3ccc(OC)c(OC)c3c[n+]1CC2 [PALMITINE] | 38.4%
COC(=O)/C=C/c1ccc(Cc2c3[n+](cc4c(OC)c(OC)ccc24)CCc2cc(OC)c(OC)cc2-3)cc1.[Br-] | 38.2%
COc1cc2c(cc1OC)-c1cc3ccc(OC)c(NC(=O)c4ccccc4)c3c[n+]1CC2.[Cl-] | 35.8%
Br.COc1cc2c(cc1OC)-c1cc3ccc(OC)c(OCc4cccc([N+](=O)[O-])c4)c3c[n+]1CC2 | 33.3%
COc1cc2c(cc1OC)-c1cc3ccc(OC)c(NC(=O)c4cccc(F)c4)c3c[n+]1CC2.[Cl-] | 40.6%
C=CCc1c2[n+](cc3c(OC)c(OC)ccc13)CCc1cc(OC)c(OC)cc1-2.[Br-] | 36.5%
COc1ccc(C(=O)Nc2c(OC)ccc3cc4[n+](cc23)CCc2cc(OC)c(OC)cc2-4)cc1.[Cl-] | 38.5%
COc1cc2c(cc1OC)-c1cc3ccc(OC)c(NC(=O)C4CCCCC4)c3c[n+]1CC2.[Cl-] | 37.7%
Br.COc1cc2c(cc1OC)-c1c(Cc3ccc([N+](=O)[O-])cc3)c3ccc(OC)c(OC)c3c[n+]1CC2 | 38.6%
COc1cc2c(cc1OC)-c1cc3ccc(OC)c(NC(=O)C45CC6CC(CC(C6)C4)C5)c3c[n+]1CC2.[Cl-] | 34.7%
COc1cc2c(cc1OC)-c1cc3ccc(OC)c(NCc4cccc(C#N)c4)c3c[n+]1CC2.[Cl-] | 36.3%
COc1cc2c(cc1OC)-c1c(C3C=CCCC3)c3ccc(OC)c(OC)c3c[n+]1CC2.[Br-] (stereo unspecified) | 39.8%

Structure (SMILES) | %max
COc1ccc(CNc2c(OC)ccc3cc4[n+](cc23)CCc2cc(OC)c(OC)cc2-4)c(OC)c1.[Cl-] | 33.5%
CCCC(=O)Nc1c(OC)ccc2cc3[n+](cc12)CCc1cc(OC)c(OC)cc1-3.[Cl-] | 34.3%
COc1cc2c(cc1OC)-c1cc3ccc(OC)c(NC(=O)c4ccc(F)cc4)c3c[n+]1CC2.[Cl-] | 37.1%
COc1cc2c(cc1OC)-c1cc3ccc(OC)c(OCc4ccccc4)c3c[n+]1CC2.[Br-] | 36.9%
CCCC(=O)Oc1c(OC)ccc2cc3[n+](cc12)CCc1cc(OC)c(OC)cc1-3.[Cl-] | 39.8%
COc1cc2c(cc1OC)-c1cc3ccc(OC)c(OCC4CCCC4)c3c[n+]1CC2.[Br-] | 35.4%
COc1cc(COc2c(OC)ccc3cc4[n+](cc23)CCc2cc(OC)c(OC)cc2-4)cc(OC)c1.[Br-] | 38.4%
COc1cc2c(cc1OC)-c1cc3ccc(OC)c(OCc4ccc(C#N)cc4)c3c[n+]1CC2.[Br-] | 42.1%
COc1cc2c(cc1OC)-c1cc3ccc(OC)c(OCC4CCCCC4)c3c[n+]1CC2.[Br-] | 33.9%
COc1cc2c(cc1OC)-c1c(Cc3cc(C)cc(C)c3)c3ccc(OC)c(OC)c3c[n+]1CC2.[Br-] | 39.4%
COc1cc2c(cc1OC)-c1cc3ccc(OC)c(NCc4ccc(C)cc4)c3c[n+]1CC2.[Cl-] | 33.2%
COc1cc2c(cc1OC)-c1cc3ccc(OC)c(OS(=O)(=O)c4ccccc4)c3c[n+]1CC2.O=[S-](=O)c1ccccc1 | 39.4%
COc1cc2c(cc1OC)-c1cc3ccc(OC)c(OCc4ccc(C)cc4)c3c[n+]1CC2.[Br-] | 35.2%
COc1cc2c(cc1OC)-c1cc3ccc(OC)c(OCc4cccc(Br)c4)c3c[n+]1CC2.[Br-] | 39.3%
CCCCNc1c(OC)ccc2cc3[n+](cc12)CCc1cc(OC)c(OC)cc1-3.[Cl-] | 33.4%
CCCCOc1c(OC)ccc2cc3[n+](cc12)CCc1cc(OC)c(OC)cc1-3.[Br-] | 34.4%
COc1cc2c(cc1OC)-c1cc3ccc(OC)c(NC(=O)C4CCCC4)c3c[n+]1CC2.[Cl-] | 34.9%
COc1cc2c(cc1OC)-c1cc3ccc(OC)c(OCc4ccc(C(F)(F)F)cc4)c3c[n+]1CC2.[Br-] | 37.7%

Source: ChEMBL document CHEMBL5154911, “Palmatine Derivatives as Potential Antiplatelet Aggregation Agents via Protein Kinase G/Vasodilator-Stimulated Phosphoprotein and Phosphatidylinositol 3-Kinase/Akt Phosphorylation” (J Med Chem, 2022)
